Common to all, as to experiment: inhibition of tumour cell growth, NCI panel, 48 h
Test [1] concerns NCI-H460 lung.
Test [2] has as its system 786-0 renal.
Test [3] deals with IGROV1 ovarian.
The subject of test [4] is MCF7 breast.
The test system of test [5] is MALME-3M melanoma.
Test [6] has as its system A498 renal.
Test [7] deals with CCRF-CEM leukemia.
Test [8] concerns SN12C renal.
The test system of test [9] is A549 NSCLC.
Test [10] concerns OVCAR-8 ovarian.

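Cultured in 96-well plates, cells were exposed to test compound for 48 hours across five concentrations. The concentration for 50% growth inhibition is given as GI50. TGI: concentration producing complete growth inhibition.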 Some results are limits rather than exact numbers.

As for `C=CCN(c1cc(OC)c2[nH]cc(C)c2c1[N+](=O)[O-])S(C)(=O)=O`, the TGI in [1], in [2], in test [3], in test [4], in test [5] and in test [6] was over 100 µM in each case. Also, the TGI in test [7], in test [8], in test [9] and in [10] was over 100 µM each time.
Consider `CCOC(=O)Cn1c(=O)c2cc(-c3ccccc3)cc3c(Cl)nc4c(OC)c(OC)cc1c4c32`, for which the TGI was 39.1 µM in test [1]; over 100 µM in [2]; 27.5 µM in [3]; 22.7 µM in test [4]; 22 µM in test [5]; 59.6 µM in test [6]. Further, the TGI in test [7] was over 56.9 µM; in [8], over 100 µM; in test [9], over 100 µM; in [10], 44.4 µM.
In the case of `Oc1cccc(-c2cn3cc(C(F)(F)F)ccc3n2)c1`, the TGI in test [1], in test [2], in test [3], in test [4], in test [5] and in [6] was over 100 µM each time. The TGI in test [7] was 77.5 µM; in test [8] it was over 100 µM; in [9], over 100 µM; in [10] it was over 100 µM.
Take `Cc1ccc(C(=O)Nc2ccc(S(=O)(=O)O)c3cc(S(=O)(=O)O)cc(S(=O)(=O)O)c23)cc1NC(=O)c1cccc(NC(=O)Nc2cccc(C(=O)Nc3cc(C(=O)Nc4ccc(S(=O)(=O)O)c5cc(S(=O)(=O)O)cc(S(=O)(=O)O)c45)ccc3C)c2)c1` (tested in a mixture with another compound): the TGI in [1], in test [2], in test [3], in test [4], in test [5] and in test [6] was over 50 µM in each case. The TGI in [7], in test [8], in test [9] and in test [10] was over 50 µM throughout.
As to `O=C(OCCC12CC3CC(CC(C3)C1)C2)c1ccc(NCc2cc(O)ccc2O)cc1`, the TGI in test [1] is over 100 µM; in [2], 4.73 µM; in [3], 0.277 µM; in test [4] it was over 100 µM; in test [5], 3.81 µM; in [6] it was 4.83 µM. Besides, the values for the TGI in test [7], in [8] and in test [9] were 15.9 µM, 11.2 µM and 15.7 µM, respectively.
Consider `C#CCn1c(=O)c(Cl)cn(/C(=C/C(=O)OCC)C(=O)OCC)c1=O`, for which the TGI in test [1] is over 100 µM; in test [2] it was 3.83 µM; in test [3] it was 35.1 µM; in test [4], 22.7 µM; in [5], 8.5 µM; in test [6], 40.8 µM. Further, the TGI in test [7] is 13.3 µM; in [8], 50.6 µM; in test [9] it was over 62.8 µM; in test [10], 12.9 µM.
As to `CC(=O)NC(Cc1ccc(OP(=O)(OCc2ccc([N+](=O)[O-])o2)N(C)CCCCCl)cc1)C(=O)NC(C)c1ccc(OCC2CCCCC2)c(C(N)=O)c1` (configuration not stated), the TGI in test [1] turned out to be 15.2 µM; in [2] it was 12.4 µM; in [3] it was 7.01 µM; in test [4], 5.23 µM; in test [5], 5.65 µM; in test [6], 35.4 µM. Further, the TGI is 10.1 µM in [7], 6.53 µM in test [8], 18.2 µM in test [9] and 21.8 µM in [10].
As to `CC(NC(C#N)CC12CC3CC(CC(C3)C1)C2)c1ccccc1` (configuration not stated), the TGI is 67.1 µM in [1]; over 100 µM in test [3]; over 100 µM in [4]; over 100 µM in test [5]; over 100 µM in [6]; 59.4 µM in test [7]. The TGI in [9] and in test [10] was over 100 µM in each case.
`N#Cc1ccc(Oc2nc3ccc(C(F)(F)F)cc3nc2-c2ccccc2)cc1`: the TGI in [1] stood at 31.4 µM; in [2], 30.8 µM; in test [3] it was 41.3 µM; in test [4], 44.1 µM; in [5], 45.3 µM; in [6], 31.2 µM. Besides, the TGI was 44.7 µM in test [7], 40.9 µM in test [8], 35.9 µM in [9] and 34.4 µM in test [10].
For the molecule `CC[C@@]12C=CC(=S)N(CCSc3ccccc3)[C@@H]1c1c(n(S(=O)(=O)c3ccc(OC)cc3)c3ccccc13)CC2`, the TGI in [1], in test [2], in test [4], in test [5], in test [6] and in test [7] was over 100 µM each time. In addition, the TGI in test [8], in test [9] and in [10] was over 100 µM each time.
Consider `Cc1nnc(-n2c(O)cc(=O)n(-c3ccccc3)c2=S)nc1/C=C/c1ccc(N(C)C)cc1`, for which the TGI is over 54.8 µM in test [1]; over 59.4 µM in test [2]; 34.2 µM in test [3]; over 40.9 µM in test [4]; 8.38 µM in [5]; over 55 µM in [6]. The TGI is over 100 µM in test [7], over 96.1 µM in test [8], over 59 µM in test [9] and over 80.2 µM in test [10].
Turning to `C=CCCCCCCCCCOC1C=CC(OC(C)=O)C(COC(C)=O)O1` (configuration not stated), the TGI in [1], in test [2], in [3], in [4], in test [5] and in [6] was over 100 µM each time. For the same molecule, the TGI in [7] is over 100 µM; in test [8], over 100 µM; in test [9], over 100 µM; in [10] it was 43.4 µM.
For the molecule `C(=C\c1cc(-c2ccc3ccccc3n2)nc2ccc3ccccc3c12)/c1ccc2ccccc2n1`, the TGI in test [1], in [2], in [3], in [4], in test [5] and in test [6] was over 100 µM each time. Besides, the TGI in [7], in test [8], in test [9] and in [10] was over 100 µM throughout.
Regarding `Nn1c(Cc2ccccc2)n[nH]c1=O`, the TGI in test [2], in [3], in test [4], in [5], in [6] and in [7] was over 100 µM throughout. Also, the TGI in [8], in test [9] and in test [10] was over 100 µM throughout.
As for `Cc1ccc(S(=O)(=O)NC(=O)NC(Cc2ccc(O)c(O)c2)C(=O)O)cc1` (configuration not stated), the TGI in test [1] is over 100 µM; in test [2] it was 34.6 µM; in [3], over 100 µM; in test [4] it was over 100 µM; in [5], over 100 µM; in test [6], over 100 µM. Further, the TGI is 63 µM in [7], over 100 µM in test [8], over 100 µM in [9] and over 100 µM in test [10].
For `CCN(CC)CCCOc1cc2c(cc1OC)C(=O)N1CCC[C@H]1C=N2`, the TGI in test [1] was over 100 µM; in [2] it was over 100 µM; in test [4], over 100 µM; in [5], over 100 µM; in [6], 92.4 µM; in [7], 87.5 µM. The TGI in [8], in test [9] and in test [10] was over 100 µM each time.
`O=[N+]([O-])c1c2nc3n(c2cc2c1nc1n2CCC1)CCC3`: the TGI in test [1], in [2], in [3], in test [4], in test [5] and in test [6] was over 100 µM throughout. The TGI in [7], in test [8], in test [9] and in test [10] was over 100 µM throughout.
In the case of `Clc1c(C(Cl)(Cl)Cl)nsc1N1CCCCC1`, the TGI is over 100 µM in [1]; 39.2 µM in test [2]; over 100 µM in test [3]; 69.3 µM in test [4]; 40.8 µM in test [5]; 46.1 µM in test [6]. Also, the TGI was 40.5 µM in [7], 80.9 µM in test [8], over 100 µM in [9] and 71 µM in test [10].
Take `C=C(C(=O)OC)c1cc2ccccc2n1S(=O)(=O)c1ccccc1`: the TGI was 8.23 µM in test [1]; over 33.5 µM in [2]; 4.21 µM in test [3]; 8.11 µM in [4]; 5.72 µM in test [5]; 5.69 µM in [6]. For the same molecule, the TGI in test [7] was found to be 4.18 µM; in test [8], 8.18 µM; in test [9] it was 31.9 µM; in test [10], 8.42 µM.
`S=C(Nc1ccccn1)Nc1ccccc1Cl`: the TGI was over 100 µM in [1]; over 100 µM in test [2]; over 67 µM in test [3]; over 100 µM in [4]; over 79.5 µM in test [5]; over 100 µM in test [6]. Further, the TGI in [7], in [8], in test [9] and in test [10] was over 100 µM each time.
Regarding `C=C1C(=O)O[C@@H]2[C@H](O)[C@@H](C)[C@@H]3C=CC(=O)[C@@]3(C)[C@H](OC(=O)C=C(C)C)[C@H]12`, the TGI was found to be 6.02 µM in test [1]; 4.48 µM in test [3]; 1.81 µM in test [4]; 1.25 µM in [5]; 4.65 µM in test [6]; 0.461 µM in test [7]. The values for the TGI in test [8], in [9] and in test [10] were 2.27 µM, 10 µM and 8.53 µM, respectively.
As to `O=[N+]([O-])c1ccc2c(c1)c(S(=O)(=O)O)cc1nonc12`, the TGI in test [1], in test [2], in test [3], in test [4], in test [5] and in test [6] was over 100 µM throughout. The TGI in test [8], in test [9] and in test [10] was over 100 µM throughout.
Consider `C=C(C)[C@@H]1CCC2=C[C@H](CC(C)=CC3=CC(C)=C(O3)[C@@H]1OC)OC2=O`, for which the TGI in test [1], in test [3], in [4], in test [5], in [6] and in test [7] was over 100 µM throughout. The TGI in [8], in test [9] and in test [10] was over 100 µM in each case.
For `c1ccc2c(c1)CC1COc3ccccc3C1O2` (configuration not stated), the TGI in test [2], in [3], in test [4], in test [5], in [6] and in [7] was over 100 µM in each case. Moreover, the TGI in test [8], in [9] and in test [10] was over 100 µM each time.
Turning to `COc1cc2c(cc1OCCCC(=O)Nc1cc(C(=O)NCCCN(C)C)n(C)n1)N=CC1CCCN1C2=O` (configuration not stated), the TGI in [1] was over 100 µM; in test [2] it was over 23.5 µM; in test [3] it was over 23.5 µM; in test [4] it was over 80.7 µM; in [5] it was 14.2 µM; in [6], 12.4 µM. Also, the TGI in test [8] was over 24.6 µM; in test [9], over 41.6 µM; in [10], over 24 µM.
On to `Oc1ccc(C#CCOc2ccccc2)cc1CNCCN(Cc1ccccn1)Cc1ccccn1`, for which the GI50 in test [1] was 0.538 µM; in test [3], 0.45 µM; in test [4] it was 1.07 µM; in [5], 1.63 µM; in test [6], 1.19 µM; in test [7], 0.833 µM. The GI50 is 1.08 µM in test [8], 1.33 µM in test [9] and 1 µM in [10]. The TGI in test [1] was 2.38 µM; in test [3] it was 1.66 µM; in test [4], 4.43 µM; in test [5] it was 3.31 µM; in test [6] it was 2.44 µM; in test [7], 10.7 µM. The TGI was determined as 2.65 µM in test [8], 3.47 µM in test [9] and 6.55 µM in [10].

Source of the values: PubChem BioAssay (NCI).
